These compounds were tested against GTPase KRas [G12D] (Homo sapiens, UniProt P01116, G12D) (assay: Biochemical Assay).
Protocol: Compounds were tested for binding to GDP-loaded KRAS G12D in a 384-well assay format using a TR-FRET probe displacement assay in buffer consisting of 50 mM Hepes (pH 7.4), 150 mM NaCl, 5 mM MgCl2 and 0.005% Tween-20. […] Compounds were serially diluted (1:3) in DMSO. The LabCyte ECHO Acoustic dispenser system was used to pre-spot the assay plates (384-well Non-Binding Surface plates, Corning, Catalog #3824) with 50 nL of compound. The compounds were pre-incubated with 5 μL of 2× final enzyme concentration for 30 minutes before adding 5 μL of 2× final concentration of Eu-streptavidin and TR-FRET probe (10 μL final reaction volume). The plates were incubated at room temperature for 2 hours before measuring TR-FRET ratio on the Envision plate reader. IC50 values were defined as the compound concentration that causes a 50% decrease in TR-FRET ratio and were calculated using a sigmoidal dose-response model to generate curve fits.

Chain of GTPase KRas [G12D] (P01116 whole entry G12D): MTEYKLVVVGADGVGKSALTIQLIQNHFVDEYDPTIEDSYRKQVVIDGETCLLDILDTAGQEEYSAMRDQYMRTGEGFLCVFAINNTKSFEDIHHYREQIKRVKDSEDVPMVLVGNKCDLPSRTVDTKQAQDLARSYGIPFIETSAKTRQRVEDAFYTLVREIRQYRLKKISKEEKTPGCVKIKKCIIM

SMILES	IC50
C#Cc1c(F)ccc2cc(O)cc(-c3nc4c5c(nc(OC[Si](C)(C)CN6CCOCC6)nc5c3F)N3C[C@H]5CC[C@H](N5)[C@H]3CO4)c12 [US20230339981, Example 29]	560 nM
Fc1ccc2cccc(-c3nc4c5c(nc(OC[C@@]67CCCN6C[C@H](F)C7)nc5c3F)N3C[C@H]5CC[C@H](N5)[C@H]3CC4)c2c1OC(F)(F)F [US20230339981, Example 65]	89 nM
C#Cc1c(F)ccc2cc(O)cc(-c3nc4c5c(nc(OC[C@@]67CCCN6C[C@H](F)C7)nc5c3F)N3C[C@H]5CC[C@H](N5)[C@@H]3CC4)c12 [US20230339981, Example 133]	0.1 nM
C#Cc1c(F)ccc2cccc(-c3nc4c5c(nc(OC[C@@]67CCCN6C[C@@H](OC(F)(F)F)C7)nc5c3F)N3C[C@H]5CC[C@H](N5)[C@H]3CC4)c12 [US20230339981, Example 140]	3.7 nM
C#Cc1c(F)ccc2cc(O)cc(-c3nc4c5c(nc(OCC6(CN7CCC8(CC7)CC8)CC6)nc5c3F)N3C[C@H]5CC[C@H](N5)[C@H]3CC4)c12 [US20230339981, Example 177]	0.1 nM
